Target: HLA-C*14:03 (Homo sapiens, UniProt P10321, A176E/A330V/A35S/A97T/C350S/D114A/D33S/L171W/L180R/L218V/M285V/M309V/M331V/P208H/Q277E/Q291P/R121W/R243W/R45H/S123F/S297R/S48A/T329A/T363A/V319A)
Assay: LC-MS/MS identification of HLA-bound HIV-1 peptides from NL4-3-infected .221-C1403 cells
Format: binding
Parameters: key: ●: Closed circles indicate the peptide which was identified in HLA-C*1402 or/and -C*1403 expressing cells
Conditions: HIV-1 NL4-3-infected .221-C1403 cells, W6/32 immunoprecipitation, two independent replicate experiments
Experimental: 721.221 cells expressing CD4 and HLA-C*14:02 (.221-C1402) or HLA-C*14:03 (.221-C1403) were infected with the laboratory-adapted NL4-3 HIV-1 strain. HLA-peptide complexes were isolated from cell lysates by immunoprecipitation with the anti-HLA class I antibody W6/32; then, peptides were eluted, fractionated by high-performance liquid chromatography (HPLC), and finally analyzed by LC-MS/MS. Two independent replicate experiments were performed, in which a total of 7,970 and 8,447 unique 8- to 13-mer peptide sequences were identified from .221-C1402 and .221-C1403 cells, respectively (Fig. 1A). Of these peptides, 6,163 were identified in both the C*14:02- and C*14:03-bound peptide data sets, while other peptides were detected in the acid-eluted fraction from only a single allele. […] These motifs are consistent with the HLA-C*1402/03 peptide motifs previously estimated using reported epitopes ([29]).
.221-C1402 and .221-C1403 cells were infected with HIV-1 NL4-3 in a low volume of RPMI 1640 medium (Thermo Fisher) containing 10% fetal bovine serum (FBS), 2 mM L-glutamine, 100 U/mL penicillin, 100 μg/mL streptomycin, and 10 mM HEPES (R10). Fifty microliters of NL4-3 stock virus (Reverse transcriptase activity (RT) value = 4 × 10^2 ng/mL) was added to 8 × 10^6 .221-C1402 cells or .221-C1403, and the cells were then incubated for 1.5 h at 37°C, after which 20 mL of R10 was added and the cells were cultured overnight. At day 1 postinfection, a further 20 mL R10 was added, and cells were split (1:2) on day 2. On day 3 postinfection, the proportion of cells infected with HIV-1 was determined by intracellular p24 staining, as previously described ([46]). Infected flasks were then harvested for immunoprecipitation of HLA-peptide complexes.
.221-C1402 cells or .221-C1403 cells infected with NL4-3 (1.5 × 10^8 to 2 × 10^8 cells) were harvested, washed in phosphate-buffered saline (PBS), and lysed in 5 mL of lysis buffer (1% IGEPAL 630, 300 mM NaCl, 100 mM Tris [pH 8.0], plus protease inhibitors) at 4°C for 45 min. Two centrifugation steps (2,000 × g for 10 min followed by 20,000 × g for 30 min at 4°C) were next employed to clear the lysates of cell debris prior to overnight capture of HLA-peptide complexes on W6/32-coated protein A‐Sepharose beads. W6/32-bound HLA-peptide complexes were sequentially washed with 10 to 20 mL of wash buffer 1 (0.005% IGEPAL, 50 mM Tris [pH 8.0], 150 mM NaCl, 5 mM EDTA), wash buffer 2 (50 mM Tris [pH 8.0], 150 mM NaCl), wash buffer 3 (50 mM Tris [pH 8.0], 400 mM NaCl), and finally wash buffer 4 (50 mM Tris [pH 8.0]) under gravity flow in Econo-Column glass chromatography columns (Bio-Rad). Peptide-HLA complexes were eluted from the beads with 5 mL of 10% acetic acid and, after drying under vacuum, were loaded onto a 4.6- by 50-mm ProSwift RP-1S column (Thermo Fisher Scientific) and eluted from an Ultimate 3000 HPLC system (Thermo Scientific) using a 500-μL/min flow rate over 10 min from 2% to 34% buffer B (0.1% trifluoroacetic acid [TFA] in acetonitrile) in buffer A (0.1% TFA in water). Alternate fractions were pooled to give two final peptide fractions that were dried for LC-MS/MS analysis.
Each HPLC-eluted sample was resuspended in 20 μL loading buffer, and 9 μL of it was injected onto a 3-μm-particle-size 0.075-mm by 150-mm Acclaim PepMap RSLC C18 column and further loaded onto a 2-μm-particle-size, 75-μm by 50-cm Acclaim PepMap RSLC C18 column using an Ultimate 3000 nUPLC system (Thermo Scientific). A linear gradient of 3 to 25% buffer B (0.1% formic acid, 5% dimethyl sulfoxide [DMSO] in acetonitrile) in buffer A (0.1% formic acid, 5% DMSO in water) was applied over 1 h to elute peptides from the column (flow rate of […]). Peptides were introduced, using an Easy-Spray source at 2,000 V at 40°C, into a Fusion Lumos mass spectrometer (Thermo Scientific). The ion transfer tube temperature was set to 305°C. […]

| Sequence | C1403: peptide identified by LC-MS/MS in HLA-I eluate |
| --- | --- |
| AFHHVAREL [Nef AL9] | ● |
| ASGYIEAEV [Pol AV9, HIV-1 NL4-3 Pol 795–803 peptide …] | ● |
| FFREDLAF [Pol FF8, HIV-1 NL4-3 Pol 1–8 peptide FFREDLAF] | ● |
| FLGAAGSTM [Env FM9, HIV-1 NL4-3 Env 522–530 peptide …] | ● |
| FMTKALGI [Tat FI8, HIV-1 NL4-3 Tat 38–45 peptide FMTKALGI] | ● |
| IYHTQGYF [Nef IF8] | ● |
| KYHSNWRAM [Pol KM9] | ● |
| LYNTIAVLY [Gag LY9] | ● |
| RFDSRLAF [Nef RF8, HIV-1 NL4-3 Nef 184–191 peptide RFDSRLAF] | ● |
| VYYDPSKDL [Pol VYL9, HIV-1 NL4-3 Pol 472–480 peptide …] | ● |
| YFPDWQNYT [Nef YT9] | ● |
